Values after ≈ are worked out from the molar mass of the structure shown.
How the values were obtained:
[1] = test system: rat stomach strip (fundus), contraction caused by PGE1; experiment: rat stomach assay: PGE1 antagonism, inhibition of PGE1-induced contraction of rat stomach fundus muscle strips; format: cell-based; details: Tyrode solution pH 7.1, 37°, PGE1 at concentration causing about 25% of maximum response; for IC50: Rattus norvegicus, pH 7.1, rat stomach fundus strip, read-out: PGE1 Antagonist IC50
Description: J. Pharmacol. 12, 344 (1957)]. Male rats are decapitated and a strip is cut from the fundus of the stomach along the greater curvature. The strip (3 to 5 mm wide and 3 to 4 cm long) is suspended in Tyrode solution at pH 7.1 and 37° and gassed continuously with oxygen. Responses of the muscle are monitored isometrically by means of a strain gauge transducer. The above table lists for several compounds of this invention the concentration in μg/ml required to inhibit by 50% the contraction of muscle strips caused by a concentration of PG1 that normally causes about 25% of maximum responses ([…]). Some of the carboxamides were also run against higher concentration of PGE1 and gave greater IC50 values.

[2] = test system: ethanol-induced gastric ulcer; experiment: ethanol-induced gastric ulcer test in rats (gastric cytoprotection); format: in vivo, rat; details: for protection against ulcers: 2.0 mg/kg
Description: One of these compounds is the tert-butylcarboxamide 7 of Example 3. In a test designed to detect gastric cytoprotectin [Robert, U.S. Pat. No. 4,097,603], compound 7 inhibited ethanol-induced gastric ulcer to the extent of about 50 % when administered orally to rats at 2 mg/kg. Under similar conditions 0.5 mg/kg of PGE1 inhibited ulcer formation to the extent of 80%. […] At 2.0 mg/kg compound 14 of Example 7 gave about 18% protection and compound 16 of Example 8 gave about 27% protection against ulcers.

[3] = side effects after oral administration to rats; format: in vivo, rat
[4] = pKa measured in 1:1 ethanol/water; format: physicochemical; details: p-toluenesulfonate salt
Description: This iodamide was treated with pyrazolidinone 6 by a procedure analogous to that used for the synthesis of 10, Example 4b. The crude product 15, was obtained as an oil in 94% yield. A solution of 6.84 g of 15 in 3 ml of dry acetonitrile was added to a solution of 3.39 g of p-toluenesulfonic acid in 26 ml of dry acetonitrile, giving 5.12 g (66%) of salt 16, mp 123°-126°. Recrystallization from acetonitrile gave analytically pure salt 16, mp 129°-130.5°; Anal. calcd. for C28 H49 N3 SO6 : C, 60.51; H, 8.89; N, 7.56; found C, 60.50; H, 8.75; N, 7.89.

[5] = rats, oral, doses as high as 300 mg/kg

Row | SMILES | IC50 [1] | other results
1 | CCCCCC(O)CCN1C(=O)CCN1CCCCCCC(=O)NC(C)(C)CC (stereo not drawn) [Compound 12, N(1,1-Dimethylpropyl)7-[3-oxo-2(3-hydroxy-n-octyl)pyrazolidin-1-yl]heptanamide] | 5 µg/mL (≈ 12.1 µM) | –
2 | CCCCCC(O)CCN1CCC(=O)N1CCCCCCC(=O)NC(C)(C)CC (stereo not drawn) [Compound 5, N(tert-Amyl)7[3-oxo-1(3-hydroxy-n-octyl)pyrazolidin-2-yl]heptanamide] | 25 µg/mL (≈ 60.7 µM) | –
3 | CCCCCC(O)CCN1C(=O)CCN1CCCCCCC(=O)N(C(C)C)C(C)C (stereo not drawn) [Compound 13, N,N(Diisopropyl)7-[3-oxo-2(3-hydroxy-n-octyl)-pyrazolidin-1-yl]heptanamide] | 20 µg/mL (≈ 47 µM) | –
4 | CCCCCC(O)CCN1CCC(=O)N1CCCCCCC(=O)NC(C)(C)C (stereo not drawn) [Compound 1, N-(tert-butyl)-7[3-oxo-1(3-hydroxy-n-octyl)pyrazolidin-2-yl]heptanamide] | 60 µg/mL (≈ 151 µM) | –
5 | CCCCCC(O)CCN1C(=O)CCN1CCCCCCC(=O)NC(C)(C)C (stereo not drawn) [Compound 7, N(tert-Butyl)7[3-oxo-2-(3-hydroxy-n-octyl)pyrazolidin-1-yl]heptanamide] | 33 µg/mL (≈ 83 µM) | inhibition of ethanol-induced gastric ulcer ([2]; oral, 2 mg/kg): about 50%; overt prostaglandin-like side effects ([3]; rat, in vivo, po): no overt prostaglandin-like side effects; diarrhea [3, 5]: no mortality or diarrhea; mortality [3, 5]: no mortality
6 | CCCCCC(O)CCN1C(=O)CCN1CCCCCCC(=O)NC(C)C (stereo not drawn) [Compound 16, N(iso-Propyl)7[3-oxo-2(3-hydroxy-n-octyl)pyrazolidin-1-yl]heptanamide] | 75 µg/mL (≈ 196 µM) | protection against ulcers [2]: about 27%; pKa [4]: 3.25
7 | CCCCCC(O)CCN1C(=O)CCN1CCCCCCC(=O)NCC(C)(C)C (stereo not drawn) [Compound 10, N(2,2-Dimethylpropyl)7[3-oxo-2(3-hydroxy-n-octyl)-pyrazolidin-1-yl]heptanamide] | 3 to 5 µg/mL (≈ 7.29 to 12.1 µM) | –
8 | CCCCCC(O)CCN1C(=O)CCN1CCCCCCC(=O)NC (stereo not drawn) [Compound 17, N-methyl-7[3-oxo-2(hydroxy-n-octyl)pyrazolidin-1-yl]heptanamide] | 175 µg/mL (≈ 492 µM) | –
9 | CCCCC[C@H](O)/C=C/[C@H]1[C@H](O)CC(=O)[C@@H]1CCCCCCC(=O)O [PGE1, reference compound] | – | inhibition of ulcer formation ([2]; similar conditions, 0.5 mg/kg): 80%
10 | CCCCCC(O)CCN1C(=O)CCN1CCCCCCC(=O)NC(C)(C)CC(C)(C)C (stereo not drawn) [Compound 14, N(1,1,3,3,-Tetramethyl-n-butyl)7[3-oxo-2(3-hydroxy-n-octyl)pyrazolidin-1-yl]heptanamide] | 2 µg/mL (≈ 4.41 µM) | protection against ulcers [2]: about 18%
11 | CCCCCC(O)CCN1C(=O)CCN1CCCCCCC(=O)NC(C)(C)C (stereo not drawn) [Compound 9, N(tert-Butyl)7[3-oxo-2-(3-hydroxy-n-octyl)pyrazolidin-1-yl]heptanamide] | – | PGE1 Antagonist IC50 ([1]; rat stomach fundus strip): 60 µg/mL

— patent US4211876A, “3-Pyrazolidinone carboxamides” (E. I. Du Pont de Nemours and Company, priority 1979, dated 1980)
